Values after ≈ are worked out from the molar mass of the structure shown. Active and inactive are the calls of the source. The rule behind the calls is not given here.
Assays:
Nakaseomyces glabratus [1] = experiment: Antifungal activity against Candida glabrata ATCC MYA-2950 assessed as reduction in fungal growth incubated for 24 hrs by CLSI based broth microdilution method; type: functional
[2] = tested on: Cryptococcus gattii species complex; experiment: Antifungal activity against Cryptococcus gattii NR43209 assessed as reduction in fungal growth incubated for 48 hrs by CLSI based broth microdilution method; type: functional, Cryptococcus bacillisporus
Cryptococcus neoformans [3] = experiment: Antifungal activity against Cryptococcus neoformans NR41300 assessed as reduction in fungal growth incubated for 48 hrs by CLSI based broth microdilution method; type: functional
[4] = Selectivity index, ratio of CC50 for African green monkey Vero cells to MIC for antifungal activity against Candida krusei ATCC 34135; type: toxicity; details: read-out: Selectivity Index
Lactobacillus crispatus = experiment: Antibacterial activity against Lactobacillus crispatus HM-370 assessed as reduction in bacterial growth by CLSI based assay
[5] = Selectivity index, ratio of CC50 for African green monkey Vero cells to MIC for antifungal activity against Candida glabrata ATCC MYA-2950; type: toxicity; details: read-out: Selectivity Index
Candida parapsilosis = experiment: Antifungal activity against Candida parapsilosis ATCC 22019 assessed as reduction in fungal growth incubated for 24 hrs by CLSI based broth microdilution method; type: functional; details: Lodderomyces parapsilosis
[6] = Cytotoxicity against African green monkey Vero cells assessed as reduction in cell viability incubated for 2 hrs by MTS assay; type: cell-based; details: chlorocebus sabaeus
[7] = Selectivity index, ratio of maximum non-toxic concentration for human Caco-2 cells to MIC for antifungal activity against fluconazole-resistant Candida albicans NR29448; type: toxicity; details: read-out: Selectivity Index
Pichia kudriavzevii [8] = experiment: Antifungal activity against Candida krusei CAB 396420 assessed as reduction in fungal growth incubated for 24 hrs by CLSI based broth microdilution method; type: functional
Staphylococcus aureus = experiment: Antibacterial activity against methicillin resistant Staphylococcus aureus subsp. aureus USA300 assessed as reduction in bacterial growth by CLSI based broth microdilution method; type: functional
Cryptococcus neoformans [9] = experiment: Antifungal activity against Cryptococcus neoformans NR41298 assessed as reduction in fungal growth incubated for 48 hrs by CLSI based broth microdilution method; type: functional
Candida albicans [10] = experiment: Fungistatic activity against Candida albicans SS5314 at 5 to 10x MIC measured for 36 hrs by time kill assay; type: functional, organism-based
Escherichia coli [11] = experiment: Antibacterial activity against Escherichia coli JW55031 harboring tolC mutation assessed as reduction in bacterial growth by CLSI based broth microdilution method; type: functional
[12] = Selectivity index, ratio of maximum non-toxic concentration for human Caco-2 cells to MIC for antifungal activity against Aspergillus fumigatus NR 35304; type: toxicity; details: read-out: Selectivity Index
[13] = Selectivity index, ratio of CC50 for African green monkey Vero cells to MIC for antifungal activity against Cryptococcus neoformans NR41298; type: toxicity; details: read-out: Selectivity Index
[14] = Selectivity index, ratio of maximum non-toxic concentration for human Caco-2 cells to MIC for antifungal activity against Cryptococcus gattii NR43209; type: toxicity; details: read-out: Selectivity Index
[15] = Selectivity index, ratio of CC50 for African green monkey Vero cells to MIC for antifungal activity against fluconazole-resistant Candida auris 381; type: toxicity; details: read-out: Selectivity Index
[16] = tested on: Cryptococcus gattii species complex; experiment: Antifungal activity against Cryptococcus gattii NR43210 assessed as reduction in fungal growth incubated for 48 hrs by CLSI based broth microdilution method; type: functional, Cryptococcus bacillisporus
Candida albicans [17] = experiment: Antifungal activity against Candida albicans ATCC 10231 assessed as reduction in fungal growth incubated for 24 hrs by CLSI based broth microdilution method; type: functional
Clostridioides difficile = experiment: Antibacterial activity against Clostridium difficile BAA1870 assessed as reduction in bacterial growth by CLSI based broth microdilution method; type: functional
[Candida] auris [18] = Antifungal activity against fluconazole-resistant Candida auris 383 assessed as reduction in fungal growth incubated for 24 hrs by CLSI based broth microdilution method; type: functional; details: Candidozyma auris
Candida albicans [19] = experiment: Antibiofilm activity against Candida albicans NR29448 assessed as reduction in biofilm formation at 0.5XMIC incubated for 24 hrs by crystal violet staining based assay relative to control; type: functional
[20] = Selectivity index, ratio of CC50 for African green monkey Vero cells to MIC for antifungal activity against Candida parapsilosis CAB 502638; type: toxicity; details: read-out: Selectivity Index
Candida albicans [21] = experiment: Antifungal activity against Candida albicans SS5314 assessed as reduction in fungal growth measured after 10 passages by CLSI based broth microdilution method; type: functional, organism-based
Escherichia coli [22] = experiment: Antibacterial activity against Escherichia coli BW25113 assessed as reduction in bacterial growth by CLSI based broth microdilution method; type: functional
[23] = Selectivity index, ratio of CC50 for African green monkey Vero cells to MIC for antifungal activity against Cryptococcus neoformans NR41300; type: toxicity; details: read-out: Selectivity Index
Nakaseomyces glabratus [24] = experiment: Antifungal activity against Candida glabrata ATCC 66032 assessed as reduction in fungal growth incubated for 24 hrs by CLSI based broth microdilution method; type: functional
[Candida] auris [25] = Antifungal activity against fluconazole-resistant Candida auris 384 assessed as reduction in fungal growth incubated for 24 hrs by CLSI based broth microdilution method; type: functional; details: Candidozyma auris
Lactobacillus gasseri = experiment: Antibacterial activity against Lactobacillus gasseri HM-400 assessed as reduction in bacterial growth by CLSI based assay
[26] = Selectivity index, ratio of maximum non-toxic concentration for human Caco-2 cells to MIC for antifungal activity against fluconazole-resistant Candida auris 381; type: toxicity; details: read-out: Selectivity Index
[27] = Selectivity index, ratio of maximum non-toxic concentration for human Caco-2 cells to MIC for antifungal activity against Candida glabrata ATCC 66032; type: toxicity; details: read-out: Selectivity Index
[Candida] auris [28] = Antifungal activity against fluconazole-resistant Candida auris 381 assessed as reduction in fungal growth incubated for 24 hrs by CLSI based broth microdilution method; type: functional; details: Candidozyma auris
Candida albicans [29] = experiment: Antibiofilm activity against 24 hrs preformed biofilm of Candida albicans NR29448 assessed as disruption of mature biofilm at 64 ug/ml incubated for 24 hrs by crystal violet staining based spectrophotometry relative to control; type: functional; details: dose 64 µg/ml
Lacticaseibacillus casei = experiment: Antibacterial activity against Lactobacillus casei HM-334 assessed as reduction in bacterial growth by CLSI based assay; type: organism-based
[30] = Selectivity index, ratio of CC50 for African green monkey Vero cells to MIC for antifungal activity against Candida glabrata ATCC 66032; type: toxicity; details: read-out: Selectivity Index
Candida albicans [31] = experiment: Antifungal activity against Candida albicans SS5314 assessed as reduction in fungal growth by CLSI based broth microdilution method; type: functional
[32] = Selectivity index, ratio of CC50 for African green monkey Vero cells to MIC for antifungal activity against fluconazole-resistant Candida albicans NR29448; type: toxicity; details: read-out: Selectivity Index
Candida albicans [33] = experiment: Antifungal activity against fluconazole-resistant Candida albicans NR29448 assessed as reduction in fungal growth incubated for 24 hrs by CLSI based broth microdilution method; type: functional
Aspergillus fumigatus = experiment: Antifungal activity against Aspergillus fumigatus NR 35304 assessed as reduction in fungal growth incubated for 24 hrs by CLSI based broth microdilution method; type: functional
[34] = Selectivity index, ratio of CC50 for African green monkey Vero cells to MIC for antifungal activity against fluconazole-resistant Candida auris 383; type: toxicity; details: read-out: Selectivity Index
[35] = Selectivity index, ratio of maximum non-toxic concentration for human Caco-2 cells to MIC for antifungal activity against Candida glabrata ATCC MYA-2950; type: toxicity; details: read-out: Selectivity Index
Pichia kudriavzevii [36] = experiment: Antifungal activity against Candida krusei ATCC 34135 assessed as reduction in fungal growth incubated for 24 hrs by CLSI based broth microdilution method; type: functional

Cc1nc(-c2ccc(C(C)(C)C)cc2)sc1-c1nnc(N[C@@H]2CCCC[C@@H]2N)o1 (relative stereo)
MIC (Nakaseomyces glabratus [1]): 0.125 mg/L (≈ 0.304 µM)
MIC [2]: 1 mg/L (≈ 2.43 µM)
MIC (Cryptococcus neoformans [3]): 2 mg/L (≈ 4.86 µM)
selectivity ratio [4]: ≤ 64
MIC (Lactobacillus crispatus): > 128 mg/L
selectivity ratio [5]: ≤ 64
MIC (Candida parapsilosis): 1 mg/L (≈ 2.43 µM)
CC50 at 2 h [6]: > 64 mg/L
selectivity ratio [7]: ≤ 64
MIC (Pichia kudriavzevii [8]): 1 mg/L (≈ 2.43 µM)
MIC (Staphylococcus aureus): > 64 mg/L
MIC (Cryptococcus neoformans [9]): 2 mg/L (≈ 4.86 µM)
Activity (Candida albicans [10]): Active
MIC (Escherichia coli [11]): > 64 mg/L
selectivity ratio [12]: ≤ 64
selectivity ratio [13]: ≤ 64
selectivity ratio [14]: ≤ 64
selectivity ratio [15]: ≤ 64
MIC [16]: 1 mg/L (≈ 2.43 µM)
MIC (Candida albicans [17]): 8 mg/L (≈ 19.4 µM)
MIC (Clostridioides difficile): 64 mg/L (≈ 156 µM)
MIC ([Candida] auris [18]): 2 mg/L (≈ 4.86 µM)
inhibition (INH) (Candida albicans [19]): 40%
selectivity ratio [20]: ≤ 64
Activity (Candida albicans [21]): Active
MIC (Escherichia coli [22]): > 64 mg/L
selectivity ratio [23]: ≤ 64
MIC (Nakaseomyces glabratus [24]): 0.5 mg/L (≈ 1.21 µM)
MIC ([Candida] auris [25]): 4 mg/L (≈ 9.72 µM)
MIC (Lactobacillus gasseri): 128 mg/L (≈ 311 µM)
selectivity ratio [26]: ≤ 64
selectivity ratio [27]: ≤ 64
MIC ([Candida] auris [28]): 4 mg/L (≈ 9.72 µM)
Activity (Candida albicans [29]): 16%
MIC (Lacticaseibacillus casei): > 128 mg/L
selectivity ratio [30]: ≤ 64
MIC (Candida albicans [31]): 1 mg/L (≈ 2.43 µM)
selectivity ratio [32]: ≤ 64
MIC (Candida albicans [33]): 8 mg/L (≈ 19.4 µM)
MIC (Aspergillus fumigatus): 4 mg/L (≈ 9.72 µM)
selectivity ratio [34]: ≤ 64
selectivity ratio [35]: ≤ 64
MIC (Pichia kudriavzevii [36]): 2 mg/L (≈ 4.86 µM)
